Consider ten molecules from patent US10689377B2 (Mirati Therapeutics, Inc., priority 2017, dated 2020).

A value given as a limit tells only on which side of the number the result lay.

In the assay the target is KRas G12C (Homo sapiens, UniProt P01116, G12C). Description: Cellular inhibition of KRas G12C measured by Phospho-ERK in NCI-H358 cells. Type of assay: cell-based. The settings on record: pERK(Thr202/Tyr204) normalized with GAPDH, NCI-H358 cells, 3 hours; read-out: IC50. A digest of the protocol: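 Following 8-12 h attachment, NCI-H358 cells got serially diluted compound (0.5% DMSO) for 3 hours. Cells were then fixed, permeabilized with cold methanol, and stained for pERK(Thr202/Tyr204) and GAPDH. Ratios were converted to percent of DMSO control, with IC50 obtained by four-parameter regression.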
Chain of KRas G12C (P01116 1-188 isoform P01116-2 G12C): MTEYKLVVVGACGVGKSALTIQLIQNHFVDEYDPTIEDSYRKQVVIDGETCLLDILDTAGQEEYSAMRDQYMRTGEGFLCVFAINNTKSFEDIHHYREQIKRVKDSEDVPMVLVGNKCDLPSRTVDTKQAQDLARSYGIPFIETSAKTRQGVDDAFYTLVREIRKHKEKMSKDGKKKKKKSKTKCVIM
Usually IC50 stands for the concentration at which inhibition is half-maximal. On to `Cc1cccc2cccc(N3CCc4c(nc(OC[C@H]5C[C@@H](F)CN5C)nc4N4CCN(C(=O)/C=C/CO)[C@@H](CC#N)C4)C3)c12` [Example 522, 2-((S)-4-(2-(((2R,4R)-4-fluoro-1-methylpyrrolidin-2-yl)methoxy)-7-(8-methylnaphthalen-1-yl)-5,6,7,8-tetrahydropyrido[3,4-d]pyrimidin-4-yl)-1-((E)-4-hydroxybut-2-enoyl)piperazin-2-yl)acetonitrile], for which the IC50 is 0.1 to 1000 nM.

`C=CC(=O)N1[C@H](C)CN(c2nc(OCCCN3CCOCC3)nc3c2CCN(c2cc(O)cc4ccccc24)C3)C[C@@H]1C` [Example 191, 1-((2S,6R)-4-(7-(3-hydroxynaphthalen-1-yl)-2-(3-morpholinopropoxy)-5,6,7,8-tetrahydropyrido[3,4-d]pyrimidin-4-yl)-2,6-dimethylpiperazin-1-yl)prop-2-en-1-one]: the IC50 was over 1000 nM.

For the molecule `C=CC(=O)N1CCN(c2nc(OCCCN3CCCC3)nc3c2CCN(c2cc(O)cc4ccccc24)C3)CC1` [Example 39, 1-(4-(7-(3-hydroxynaphthalen-1-yl)-2-(3-(pyrrolidin-1-yl)propoxy)-5,6,7,8-tetrahydropyrido[3,4-d]pyrimidin-4-yl)piperazin-1-yl)prop-2-en-1-one], the IC50 was 0.1 to 1000 nM.

In the case of `C=CC(=O)N1CCN(c2nc(OCCN(C)C)nc3c2CCN(c2cc(O)cc4ccccc24)C3C)CC1` (stereo not shown) [Example 47, 1-(4-(2-(2-(dimethylamino)ethoxy)-7-(3-hydroxynaphthalen-1-yl)-8-methyl-5,6,7,8-tetrahydropyrido[3,4-d]pyrimidin-4-yl)piperazin-1-yl)prop-2-en-1-one], the IC50 is over 1000 nM.

For `C=CC(=O)N1CCN(c2nc(OCCCN3CCOCC3)nc3c2CCN(c2cccc4cccc(C)c24)C3)C[C@@H]1CC#N` [Example 370, (S)-2-(1-acryloyl-4-(7-(8-methylnaphthalen-1-yl)-2-(3-morpholinopropoxy)-5,6,7,8-tetrahydropyrido[3,4-d]pyrimidin-4-yl)piperazin-2-yl)acetonitrile], the IC50 was in the range of 0.1 to 1000 nM.

Regarding `C=CC(=O)N1CCN(c2nc(OCCN(C)CCOC)nc3c2CCN(c2cc(O)cc4ccccc24)C3)CC1` [Example 107, 1-(4-(7-(3-hydroxynaphthalen-1-yl)-2-(2-((2-methoxyethyl)(methyl)amino)ethoxy)-5,6,7,8-tetrahydropyrido[3,4-d]pyrimidin-4-yl)piperazin-1-yl)prop-2-en-1-one], the IC50 is over 1000 nM.

As to `C=CC(=O)N1CCN(c2nc(OCCN(CC)CC)nc3c2CCN(c2cc(O)cc4ccccc24)C3)CC1` [Example 102], the IC50 is 0.1 to 1000 nM.

On to `C=CC(=O)N1CCN(c2nc(OC[C@@H]3CCCN3C)nc3c2CCN(c2cccc4cccc(C(F)(F)F)c24)C3)C[C@@H]1CC#N` [Example 434, 2-((S)-1-acryloyl-4-(2-(((S)-1-methylpyrrolidin-2-yl)methoxy)-7-(8-(trifluoromethyl)naphthalen-1-yl)-5,6,7,8-tetrahydropyrido[3,4-d]pyrimidin-4-yl)piperazin-2-yl)acetonitrile], for which the 50% inhibitory concentration (IC50) lay in the range of 0.1 to 1000 nM.

As for `C=CC(=O)N1CCN(c2nc(OC[C@@H]3CCCN3C)nc3c2CCN(c2cccc4ccc(Cl)cc24)C3)CC1CC#N` (stereo partly drawn) [Example 286, 2-(1-acryloyl-4-(7-(7-chloronaphthalen-1-yl)-2-(((S)-1-methylpyrrolidin-2-yl)methoxy)-5,6,7,8-tetrahydropyrido[3,4-d]pyrimidin-4-yl)piperazin-2-yl)acetonitrile], the 50% inhibitory concentration (IC50) lay within 0.1 to 1000 nM.

For `C=CC(=O)N1CCN(c2nc(OC[C@@H]3CCCN3C)nc3c2CCN(c2ccnc4ccccc24)C3)CC1CC#N` (stereo partly drawn) [Example 295, 2-[4-[2-[[(2S)-1-methylpyrrolidin-2-yl]methoxy]-7-(4-quinolyl)-6,8-dihydro-5H-pyrido[3,4-d]pyrimidin-4-yl]-1-prop-2-enoyl-piperazin-2-yl]acetonitrile], the IC50 is over 1000 nM.
